Data taken from PubChem BioAssay AID2060888 (Molecular Pharmacology Branch, DTP, NCI, 2025).

Test system: 695427-040-R-J1-PDC complex spheroid viability
Experiment: Anticancer human tumor 695427-040-R-J1-PDC patient-derived colon adenocarcinoma cell line growth inhibition [RAS]
Details: for IC50: curve of first compound; for viability, T/C: stronger effect = lower value
Summary of the method: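 Agents were tested in combination matrices in half-log decrements from a top concentration at or near clinical Cmax (10 microM if undetermined). Targets were multi-cell spheroids of tumour lines plus HUVEC and MSC stromal cells.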
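Note: viability read after seven days of drug exposure.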
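Throughout, for viability, T/C: 100% = DMSO vehicle control viability.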

CC(C)NCC(C(=O)N1CCN(c2ncnc3c2C(C)CC3O)CC1)c1ccc(Cl)cc1 (stereo not drawn) + C=CC(=O)N1CCN(c2nc(OCC3CCCN3C)nc3c(F)c(-c4nc(N)cc(C)c4C(F)(F)F)c(Cl)cc23)C(C)C1
IC50 (second compound 0.00316 µM): > 10000 nM | IC50 (second compound 0.01 µM): > 10000 nM | IC50 (second compound 0.0316 µM): > 10000 nM | IC50 (second compound 0.1 µM): > 10000 nM | IC50 (second compound 0.316 µM): > 10000 nM | IC50 (second compound 1 µM): > 10000 nM | viability, T/C (second compound 0.00316 µM, first compound 0.0316 µM): 98% | viability, T/C (second compound 0.00316 µM, first compound 0.1 µM): 95.2% | viability, T/C (second compound 0.00316 µM, first compound 0.316 µM): 88.2% | viability, T/C (second compound 0.00316 µM, first compound 1 µM): 84.7% | viability, T/C (second compound 0.00316 µM, first compound 3.16 µM): 93.6% | viability, T/C (second compound 0.00316 µM, first compound 10 µM): 108% | viability, T/C (second compound 0.01 µM, first compound 0.0316 µM): 107% | viability, T/C (second compound 0.01 µM, first compound 0.1 µM): 102% | viability, T/C (second compound 0.01 µM, first compound 0.316 µM): 88.5% | viability, T/C (second compound 0.01 µM, first compound 1 µM): 93.3% | viability, T/C (second compound 0.01 µM, first compound 3.16 µM): 101% | viability, T/C (second compound 0.01 µM, first compound 10 µM): 111% | viability, T/C (second compound 0.0316 µM, first compound 0.0316 µM): 109% | viability, T/C (second compound 0.0316 µM, first compound 0.1 µM): 91.1% | viability, T/C (second compound 0.0316 µM, first compound 0.316 µM): 91.7% | viability, T/C (second compound 0.0316 µM, first compound 1 µM): 87.8% | viability, T/C (second compound 0.0316 µM, first compound 3.16 µM): 102% | viability, T/C (second compound 0.0316 µM, first compound 10 µM): 106% | viability, T/C (second compound 0.1 µM, first compound 0.0316 µM): 98.7% | viability, T/C (second compound 0.1 µM, first compound 0.1 µM): 91.5% | viability, T/C (second compound 0.1 µM, first compound 0.316 µM): 81.3% | viability, T/C (second compound 0.1 µM, first compound 1 µM): 83.6% | viability, T/C (second compound 0.1 µM, first compound 3.16 µM): 105% | viability, T/C (second compound 0.1 µM, first compound 10 µM): 111% | viability, T/C (second compound 0.316 µM, first compound 0.0316 µM): 107% | viability, T/C (second compound 0.316 µM, first compound 0.1 µM): 88.6% | viability, T/C (second compound 0.316 µM, first compound 0.316 µM): 91.4% | viability, T/C (second compound 0.316 µM, first compound 1 µM): 95.2% | viability, T/C (second compound 0.316 µM, first compound 3.16 µM): 102% | viability, T/C (second compound 0.316 µM, first compound 10 µM): 107% | viability, T/C (second compound 1 µM, first compound 0.0316 µM): 91.7% | viability, T/C (second compound 1 µM, first compound 0.1 µM): 94.6% | viability, T/C (second compound 1 µM, first compound 0.316 µM): 89% | viability, T/C (second compound 1 µM, first compound 1 µM): 79.7% | viability, T/C (second compound 1 µM, first compound 3.16 µM): 81.5% | viability, T/C (second compound 1 µM, first compound 10 µM): 89.5%

CC(Nc1ccc2c(c1)OCCn1cc(N3C(=O)OCC3C(F)F)nc1-2)C(N)=O (stereo not drawn)
viability, T/C (compound 0.0316 µM): 89.9% [middle of 4 runs] | viability, T/C (compound 0.1 µM): 72.5% [middle of 4 runs] | viability, T/C (compound 0.316 µM): 73.7% [middle of 4 runs] | viability, T/C (compound 10 µM): 41.9% [middle of 4 runs]

CC(C)n1nc(-c2ccc3oc(N)nc3c2)c2c(N)ncnc21 + CCn1c(-c2cccnc2C(C)OC)c2c3cc(ccc31)N1CCOC(CC(NC(=O)C(C(C)C)N(C)C(=O)C3(F)CCN(C(=O)C#CC(C)(C)N(C)C)CC3)C(=O)N3CCCC(N3)C(=O)OCC(C)(C)C2)C1
IC50 (second compound 0.000949 µM): > 100 nM | IC50 (second compound 0.003 µM): > 100 nM | IC50 (second compound 0.00949 µM): > 100 nM | IC50 (second compound 0.03 µM): > 100 nM | IC50 (second compound 0.0949 µM): 95.3 nM | IC50 (second compound 0.3 µM): 89.7 nM | viability, T/C (second compound 0.000949 µM, first compound 0.000316 µM): 107% | viability, T/C (second compound 0.000949 µM, first compound 0.001 µM): 120% | viability, T/C (second compound 0.000949 µM, first compound 0.00316 µM): 78.7% | viability, T/C (second compound 0.000949 µM, first compound 0.01 µM): 90.6% | viability, T/C (second compound 0.000949 µM, first compound 0.0316 µM): 74.3% | viability, T/C (second compound 0.000949 µM, first compound 0.1 µM): 56.2% | viability, T/C (second compound 0.003 µM, first compound 0.000316 µM): 107% | viability, T/C (second compound 0.003 µM, first compound 0.001 µM): 84.3% | viability, T/C (second compound 0.003 µM, first compound 0.00316 µM): 98.6% | viability, T/C (second compound 0.003 µM, first compound 0.01 µM): 83.5% | viability, T/C (second compound 0.003 µM, first compound 0.0316 µM): 62.1% | viability, T/C (second compound 0.003 µM, first compound 0.1 µM): 57.3% | viability, T/C (second compound 0.00949 µM, first compound 0.000316 µM): 110% | viability, T/C (second compound 0.00949 µM, first compound 0.001 µM): 89.7% | viability, T/C (second compound 0.00949 µM, first compound 0.00316 µM): 85.5% | viability, T/C (second compound 0.00949 µM, first compound 0.01 µM): 74.2% | viability, T/C (second compound 0.00949 µM, first compound 0.0316 µM): 73.5% | viability, T/C (second compound 0.00949 µM, first compound 0.1 µM): 56.5% | viability, T/C (second compound 0.03 µM, first compound 0.000316 µM): 108% | viability, T/C (second compound 0.03 µM, first compound 0.001 µM): 80.2% | viability, T/C (second compound 0.03 µM, first compound 0.00316 µM): 66% | viability, T/C (second compound 0.03 µM, first compound 0.01 µM): 78.3% | viability, T/C (second compound 0.03 µM, first compound 0.0316 µM): 77.7% | viability, T/C (second compound 0.03 µM, first compound 0.1 µM): 62.5% | viability, T/C (second compound 0.0949 µM, first compound 0.000316 µM): 86.1% | viability, T/C (second compound 0.0949 µM, first compound 0.001 µM): 79.2% | viability, T/C (second compound 0.0949 µM, first compound 0.00316 µM): 66.8% | viability, T/C (second compound 0.0949 µM, first compound 0.01 µM): 76.9% | viability, T/C (second compound 0.0949 µM, first compound 0.0316 µM): 73.4% | viability, T/C (second compound 0.0949 µM, first compound 0.1 µM): 48.9% | viability, T/C (second compound 0.3 µM, first compound 0.000316 µM): 83.2% | viability, T/C (second compound 0.3 µM, first compound 0.001 µM): 104% | viability, T/C (second compound 0.3 µM, first compound 0.00316 µM): 81% | viability, T/C (second compound 0.3 µM, first compound 0.01 µM): 74.8% | viability, T/C (second compound 0.3 µM, first compound 0.0316 µM): 64.5% | viability, T/C (second compound 0.3 µM, first compound 0.1 µM): 48%
